Laboratory results as given in the NIST ThermoML archive (doi:10.1021/je400783h).

Details: for mass density / vapor or sublimation pressure / viscosity / speed of sound: Liquid; for vapor or sublimation pressure: Ebulliometric method (Recirculating still); for surface tension liquid-gas: Drop volume; for viscosity: Capillary tube (Ostwald / Ubbelohde) method; for speed of sound: Pulse-echo method

OCC1CCCO1 (stereo not given) [2-tetrahydrofurylmethanol]
Details	mass density [kg/m3]	speed of sound [m/s]	viscosity [mPa·s]
313.15 K, 7500 kPa	1041.89	–	–
313.15 K, 10000 kPa	1043.41	–	–
313.15 K, 20000 kPa	1048.93	–	–
313.15 K, 30000 kPa	1054.21	–	–
313.15 K, 40000 kPa	1059.19	–	–
313.15 K, 50000 kPa	1063.91	–	–
313.15 K, 60000 kPa	1068.44	–	–
315.65 K, 101.33 kPa	–	1424.1	3.374
318.15 K, 100 kPa	1032.83	–	–
318.15 K, 101.33 kPa	–	1415.4	3.177
318.15 K, 2500 kPa	1034.57	–	–
318.15 K, 5000 kPa	1036.11	–	–
318.15 K, 7500 kPa	1037.62	–	–
318.15 K, 10000 kPa	1039.11	–	–
318.15 K, 20000 kPa	1044.81	–	–
318.15 K, 30000 kPa	1050.15	–	–
318.15 K, 40000 kPa	1055.24	–	–
318.15 K, 50000 kPa	1060.12	–	–
318.15 K, 60000 kPa	1064.68	–	–
320.65 K, 101.33 kPa	–	1406.8	2.996
323.15 K, 100 kPa	1028.47	–	–
323.15 K, 101.33 kPa	–	1398.1	2.83
323.15 K, 2500 kPa	1030.3	–	–
323.15 K, 5000 kPa	1031.87	–	–
323.15 K, 7500 kPa	1033.41	–	–
323.15 K, 10000 kPa	1034.93	–	–
323.15 K, 20000 kPa	1040.79	–	–
323.15 K, 30000 kPa	1046.28	–	–
323.15 K, 40000 kPa	1051.44	–	–
323.15 K, 50000 kPa	1056.41	–	–
323.15 K, 60000 kPa	1061.07	–	–
325.65 K, 101.33 kPa	–	1389.4	2.677
328.15 K, 100 kPa	1024.08	–	–
328.15 K, 101.33 kPa	–	1380.8	2.535
328.15 K, 2500 kPa	1025.88	–	–
328.15 K, 5000 kPa	1027.49	–	–
328.15 K, 7500 kPa	1029.13	–	–
328.15 K, 10000 kPa	1030.63	–	–
328.15 K, 20000 kPa	1036.6	–	–
328.15 K, 30000 kPa	1042.2	–	–
328.15 K, 40000 kPa	1047.5	–	–
328.15 K, 50000 kPa	1052.52	–	–
328.15 K, 60000 kPa	1057.3	–	–
330.65 K, 101.33 kPa	–	1372.1	2.404
333.15 K, 100 kPa	1019.68	–	–
333.15 K, 101.33 kPa	–	1363.5	2.282
333.15 K, 2500 kPa	1021.52	–	–
333.15 K, 5000 kPa	1023.18	–	–
333.15 K, 7500 kPa	1024.84	–	–
333.15 K, 10000 kPa	1026.39	–	–
333.15 K, 20000 kPa	1032.49	–	–
333.15 K, 30000 kPa	1038.22	–	–
333.15 K, 40000 kPa	1043.64	–	–
333.15 K, 50000 kPa	1048.73	–	–
333.15 K, 60000 kPa	1053.6	–	–
335.65 K, 101.33 kPa	–	1354.8	2.169
338.15 K, 100 kPa	1015.24	–	–
338.15 K, 101.33 kPa	–	1346.2	2.064
338.15 K, 2500 kPa	1017.04	–	–
338.15 K, 5000 kPa	1018.75	–	–
338.15 K, 7500 kPa	1020.45	–	–
338.15 K, 10000 kPa	1022.06	–	–
338.15 K, 20000 kPa	1028.31	–	–
338.15 K, 30000 kPa	1034.16	–	–
338.15 K, 40000 kPa	1039.68	–	–
338.15 K, 50000 kPa	1044.89	–	–
338.15 K, 60000 kPa	1049.83	–	–

Details	surface tension liquid-gas [mN/m]	vapor or sublimation pressure [kPa]
313.15 K	–	0.21
315.65 K	35.74	–
318.15 K	35.48	0.31
320.65 K	35.23	–
323.15 K	34.98	0.43
325.65 K	34.72	–
328.15 K	34.47	0.63
330.65 K	34.22	–
333.15 K	33.96	0.86
335.65 K	33.71	–
338.15 K	33.46	1.15
343.15 K	–	1.55
348.15 K	–	2.11
353.15 K	–	2.72
358.15 K	–	3.53
363.15 K	–	4.51
368.15 K	–	5.72
373.15 K	–	7.22
378.15 K	–	9.11
383.15 K	–	11.18
388.15 K	–	13.68
393.15 K	–	16.64
398.15 K	–	20.17
403.15 K	–	24.22
408.15 K	–	28.63
413.15 K	–	34.22
418.15 K	–	40.19
423.15 K	–	47.32
428.15 K	–	56.31
433.15 K	–	65.02
438.15 K	–	74.02
443.15 K	–	84.98
448.15 K	–	97.93

101.33 kPa, Vibrating tube method
Details	mass density [kg/m3]
315.65 K	1035
318.15 K	1032.83
320.65 K	1030.65
323.15 K	1028.47
325.65 K	1026.28
328.15 K	1024.08
330.65 K	1021.88
333.15 K	1019.68
335.65 K	1017.46
338.15 K	1015.24
